# Measured values published in paper PMC8126888 (RSC Medicinal Chemistry, 2020).
# Read-outs that look alike come from different tables or passages of the source.
# What was measured:
# [1] = tested on: Leishmania infantum MHOM/MA(BE)/67/ITMAP263 intracellular amastigotes; assay: microbe, parasite or virus in culture; details: Macrophage, in Mus musculus
# [2] = tested on: primary peritoneal mouse macrophages (PMM); details: for SI (vs PMM): PMM IC50 / L. infantum IC50; for IC50: read-out: PMM IC50
# [3] = in vitro; details: Swiss, mouse
# [4] = tested on: Trypanosoma cruzi, Tulahuen CL2, beta-galactosidase strain; assay: microbe, parasite or virus in culture; details: MRC5, read-out: T. cruzi Tulahuen C4 (LacZ) IC50
# [5] = in vitro; details: human
# [6] = tested on: MRC-5SV2 cells; assay: Cytotoxicity assay on MRC-5SV2 cells (resazurin)
# [7] = tested on: L. donovani MHOM/ET/67/L82 intracellular amastigotes; details: read-out: L. donovani MHOM/ET/67/L82 intracellular amastigotes IC50
# [8] = tested on: Leishmania infantum MHOM/MA(BE)/67/ITMAP263 intracellular amastigotes; details: for IC50: read-out: L. infantum MHOM/MA(BE)/67/ITMAP263 intracellular amastigotes IC50
# [9] = in vitro; details: mouse, microsomes, pH 7.4, MLM CLint, mouse liver microsomes
# [10] = in vitro; details: human, microsomes, pH 7.4, HLM CLint, human liver microsomes
# [11] = read-out: L. Inf. pIC50, from L. infantum intracellular amastigote IC50 (converted)
# [12] = read-out: L. infantum MHOM/MA(BE)/67/ITMAP263 intracellular amastigotes IC50
# [13] = from L. infantum intracellular amastigote IC50
SMILES,CC50 [6] [µM],IC50 [2] [µM],IC50 [7] [µM],IC50 [8] [µM],L. Inf. pIC50 [8],further results
CC(=O)Nc1ccc(S(=O)(=O)NCc2ccccc2)cc1 [DNDI0003366092],,,,,,"IC50 [1, 11]: > 64 µM; IC50 [1, 12]: > 64 µM; SI (vs PMM) [2]: 1; IC50 [3]: > 64 µM; IC50 [4]: > 64 µM; CC50 at 3 days [5]: > 64 µM"
Fc1cccc(Cl)c1CNc1ccccc1-n1cccn1 [Compound Z739504072],> 32,> 32,> 32,> 32,,
COc1ccc(S(=O)(=O)N(C)C)cc1NC(=O)C1CCCc2ccccc21 (centres unmarked) [Compound Z300980532],> 32,> 32,> 32,> 32,,
CC1CCc2ccccc2N1CC(=O)Nc1ccc(Cl)c(S(=O)(=O)N(C)C)c1 (centres unmarked) [Compound Z46500410],> 32,> 32,> 32,> 32,,
CCC(Cc1ccccc1)S(=O)(=O)c1nc(C)cc(C)c1C#N (centres unmarked) [DNDI0003297459],,,,,,"IC50 [1, 11]: 20.4 µM; IC50 [1, 12]: 20.2 µM; SI (vs PMM) [2]: 3; IC50 [3]: > 64 µM; IC50 [4]: 45.2 µM; CC50 at 3 days [5]: > 64 µM"
COc1ccc(OC)c(S(=O)(=O)N(Cc2ccccc2)Cc2ccccc2)c1 [Compound Z45508995],6.41,> 32,1.19,1.01,6,
CCCCNS(=O)(=O)c1cccc(NC(=O)c2cnc(C)cn2)c1 [Compound Z88583029],> 32,> 32,> 32,> 32,,
Cc1cc(C)c(C#N)c(SCSc2nc(C)cc(C)c2C#N)n1 [DNDI0003297456],,,,,,"IC50 [1, 11]: > 64 µM; IC50 [1, 12]: > 64 µM; SI (vs PMM) [2]: 1; IC50 [3]: > 64 µM; IC50 [4]: > 64 µM; CC50 at 3 days [5]: > 64 µM"
CC1Cc2ccccc2N1CC(=O)Nc1ccc(Cl)c(S(=O)(=O)N(C)C)c1 (centres unmarked) [Compound Z30956600],> 32,> 32,> 32,> 32,,
COc1ccc(S(=O)(=O)N(C)C)cc1NC(=O)Cn1c(=O)cnc2ccccc21 [Compound Z19025005],> 32,> 32,> 32,> 32,,
CCc1c(C(=O)Nc2cc(S(=O)(=O)NC)ccc2C)[nH]c(C)c1C(C)=O [Compound Z792473370],> 32,> 32,> 32,21.5,4.67,
CNC(=O)NC(=O)COc1ccc(S(N)(=O)=O)cc1 [Compound Z381095182],> 32,> 32,> 32,> 32,,
CN(C)S(=O)(=O)c1cccc(NC(=O)CN2CCCc3cc(F)cc(F)c32)c1 [Compound Z369155588],> 32,> 32,> 32,> 32,,
"CC/C(=C(\c1ccccc1)c1ccc(OCCN(C)C)cc1)c1ccccc1 [Tamoxifen, reference compound]",,,,,,CC50 at 5 days [3]: 5 to 10 µM
COc1ccc(S(=O)(=O)N(Cc2ccccc2C#N)Cc2ccccc2C#N)cc1OC [Compound Z220633250],> 32,> 32,> 32,4.76,5.32,
COC(=O)c1cccc(C(=O)Nc2cccc(S(=O)(=O)N3CCCC3)c2)n1 [Compound Z441654950],> 32,> 32,> 32,> 32,,
CCN(CC)S(=O)(=O)c1cc(NC(=O)c2[nH]c(C)c(C(=O)OC)c2C)ccc1C [Compound Z26467494],10.9,> 32,12,16.1,4.79,
CCCCNS(=O)(=O)c1cccc(NC(=O)c2cc(C)c(C)s2)c1 [Compound Z88584860],> 32,> 32,> 32,> 32,,
CCCCNS(=O)(=O)c1cccc(NC(=O)c2cc3ccccc3[nH]2)c1 [Compound Z88584859],> 32,> 32,25.4,16.2,4.79,
O=S(=O)(NCc1cccs1)c1ccc2c(c1)CCCC2 [Compound Z45423905],27.1,> 32,> 32,> 32,,
CCOC(=O)c1c(C)[nH]c(C(=O)Nc2ccc(Cl)c(S(=O)(=O)N3CCCCC3)c2)c1C [Compound Z30461235],2.17,16,3.39,2.99,5.52,

SMILES,CC50 [6] [µM],IC50 [2] [µM],IC50 [7] [µM],IC50 [8] [µM],L. Inf. pIC50 [8],further results
CN(Cc1ccccc1NCC(=O)Nc1cccc(S(=O)(=O)N(C)C)c1)C1CCCCC1 [Compound Z31013342],> 32,> 32,> 32,21.5,4.67,
CCCCCOc1cc(C)c(Cl)cc1S(=O)(=O)NCc1ccco1 [Compound Z1172171148],,,4.76,,,"SI (vs PMM) [2]: 30; L. Inf. pIC50 [8, 13]: 5.97"
CCCCOc1cc(C)c(Cl)cc1S(=O)(=O)NCc1cccs1 [Compound Z1198037505],,,5.38,,,"SI (vs PMM) [2]: 41; L. Inf. pIC50 [8, 13]: 6.1"
Cc1ccc(NC(=O)c2[nH]c(C)c(C(=O)OC(C)C)c2C)cc1S(=O)(=O)N1CCCCC1 [Compound Z51733284],3.11,16,16.2,10.2,4.99,
CCOc1ccc(NC(=O)c2[nH]c(C)c(C(=O)OC)c2C)cc1S(=O)(=O)N1CCCC1 [Compound Z29178369],> 32,> 32,> 32,> 32,,
COC(=O)c1c(C)[nH]c(C(=O)Nc2cccc(S(C)(=O)=O)c2)c1C [Compound Z109929482],> 32,> 32,> 32,> 32,,
COc1ccc(S(=O)(=O)N(Cc2cccc(F)c2)Cc2cccc(F)c2)cc1OC [Compound Z220633200],> 32,> 32,25.4,10.1,4.99,
CCCCNS(=O)(=O)c1cccc(NC(=O)c2ccc(C)c(OC)c2)c1 [Compound Z109591588],> 32,> 32,> 32,> 32,,
CCCCOc1cc(C)c(Cl)cc1S(=O)(=O)NCc1cccnc1 [Compound Z969575790],,,25.4,,,"SI (vs PMM) [2]: 2; L. Inf. pIC50 [8, 13]: 4.78"
CCOC(=O)c1c(C)[nH]c(C(=O)Nc2cccc(S(=O)(=O)N3CCOCC3)c2)c1C [Compound Z30001211],18.1,> 32,> 32,> 32,,
CN(C)S(=O)(=O)c1cccc(NC(=O)CNc2cccc3c2CCCC3)c1 [Compound Z30985744],> 32,> 32,> 32,> 32,,
COC(=O)c1c(C)[nH]c(C(=O)Nc2cccc(S(=O)(=O)N3CCCC3)c2)c1C [Compound Z30224758],> 32,> 32,> 32,> 32,,
COc1ccc(Cl)cc1S(=O)(=O)N(Cc1ccccc1)Cc1ccccc1 [DNDI0003366072],,,,,,"IC50 [1, 11]: 1.38 µM; IC50 [1, 12]: 1.37 µM; IC50 [3]: > 64 µM; microsomal CLint at 0.5 μM [9]: 1350 µL/min/mg; IC50 [4]: 8.16 µM; microsomal CLint at 0.5 μM [10]: 407 µL/min/mg; CC50 at 3 days [5]: > 64 µM"
Cc1ccc(NC(=O)CN2CCCCc3ccccc32)cc1S(=O)(=O)N1CCOCC1 [Compound Z1318043362],> 32,16,25.4,16.6,4.78,
CCCOc1cc(C)c(C)cc1S(=O)(=O)NC1CCCC1 [Compound Z1197866122],,,> 32,,,SI (vs PMM) [2]: 1
CCOC(=O)c1c(C)[nH]c(C(=O)NNC(=O)c2cccc(S(=O)(=O)N(CC)CC)c2)c1C [Compound Z30581529],> 32,> 32,> 32,> 32,,
COc1ccccc1S(=O)(=O)N(Cc1ccccc1)Cc1ccccc1 [Compound Z45508946],> 32,> 32,1.59,0.34,6.47,
Cc1ccc(NC(=O)CN(CC(C)C)c2cccc(O)c2)cc1S(=O)(=O)N(C)C [Compound Z1317978681],28.4,> 32,19,16.1,4.79,
COc1ccc(S(=O)(=O)N(C)C)cc1NC(=O)CN1C(=O)COc2ccccc21 [Compound Z29560624],> 32,> 32,> 32,> 32,,
CC1CCc2ccccc2N1CC(=O)N1CCCc2cc(S(=O)(=O)N(C)C)ccc21 (centres unmarked) [Compound Z195652240],> 32,> 32,> 32,> 32,,
CCCc1c(C(=O)Nc2cccc(S(=O)(=O)NCc3ccco3)c2)[nH]c(C)c1C(C)=O [Compound Z966334826],12.8,> 32,> 32,14.5,4.84,
